Experimental data as given in publication PMC8188729 (Nature, 2020).
Where “and” joins values, the source holds several entries; their conditions need not be identical. Equal values may be shown once.

Key:
[1] = test system: HIV-1 recombinant strains resistant to NRTIs, NNRTIs, INSTIs, PIs or MIs; assay type: cell-based
[2] = Cytotoxicity assay; assay type: cell-based; conditions: human, Huh-7 cells
[3] = Cytotoxicity assay; assay type: cell-based; conditions: human, MT-4 cells
[4] = Cytotoxicity assay; assay type: cell-based; conditions: human, quiescent PBMCs
[5] = Cytotoxicity assay; assay type: cell-based; conditions: human, primary CD4+ T-lymphocytes
[6] = Cytotoxicity assay; assay type: cell-based; conditions: human, Gal-HepG2 cells
[7] = Cytotoxicity assay; assay type: cell-based; conditions: human, monocyte-derived macrophages
[8] = Cytotoxicity assay; assay type: cell-based; conditions: human, primary human hepatocytes
[9] = Cytotoxicity assay; assay type: cell-based, human; conditions: human, stimulated PBMCs
[10] = Cytotoxicity assay; assay type: cell-based; conditions: human, MRC-5 cells
[11] = Cytotoxicity assay; assay type: cell-based; conditions: human, Gal-PC-3 cells

C=C(C)[C@@H]1CC[C@]2(C(=O)O)CC[C@]3(C)[C@H](CC[C@@H]4[C@@]5(C)CC[C@H](OC(=O)CC(C)(C)C(=O)O)C(C)(C)[C@@H]5CC[C@]43C)[C@@H]12 [BVM, bevirimat, reference compound]
Fold resistance [1]: >67.5 (6) and >67.5 (7)

O=C1Nc2ccc(Cl)cc2[C@@](C#CC2CC2)(C(F)(F)F)O1 [EFV, efavirenz, reference compound]
Fold resistance [1]: >22.5 (3)

COc1cc2c(cc1Cc1cccc(Cl)c1F)c(=O)c(C(=O)O)cn2[C@H](CO)C(C)C [EVG, elvitegravir, reference compound]
Fold resistance [1]: >53.8 (3) and >52.9 (3)

COc1ccc(C[C@H](N)C(=O)N[C@H]2[C@@H](O)[C@H](n3cnc4c(N(C)C)ncnc43)O[C@@H]2CO)cc1 [Puromycin, reference compound]
CC50 [2]: 500 nM | CC50 [3]: 200 ± 100 nM | CC50 [4]: 600 ± 1500 nM | CC50 [5]: 200 ± 100 nM | CC50 [6]: 1000 ± 1700 nM | CC50 [7]: 4500 ± 2800 nM | CC50 [8]: 1600 ± 600 nM | CC50 [9]: 200 ± 100 nM | CC50 [10]: 300 nM | CC50 [11]: 400 nM
